In PubChem BioAssay AID1963829 (Molecular Pharmacology Branch, DTP, NCI, 2024):

Tested on: 935938-334-R-J1-PDC complex spheroid viability
Test: Anticancer human tumor 935938-334-R-J1-PDC patient-derived small intestine adenocarcinoma cell line growth inhibition [POLQ]
Conditions: for IC50: curve of first compound; for viability, T/C: stronger effect = lower value
In short: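 Complex spheroid viability model combining PDC tumour cells with endothelial (HUVEC) and MSC stromal cells. Novobiocin, ART-558 or RP6685 were tested singly and in combination with standard and investigational anticancer drugs. Each was titrated in half-log steps from near clinical Cmax, or from 10 microM where Cmax was unknown.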

[1] = second compound 0.0316 µM, first compound 0.0316 µM
[2] = second compound 0.0316 µM, first compound 0.1 µM
[3] = second compound 0.0316 µM, first compound 0.316 µM
[4] = second compound 0.0316 µM, first compound 1 µM
[5] = second compound 0.0316 µM, first compound 3.16 µM
[6] = second compound 0.0316 µM, first compound 10 µM
[7] = second compound 0.1 µM, first compound 0.0316 µM
[8] = second compound 0.1 µM, first compound 0.1 µM
[9] = second compound 0.1 µM, first compound 0.316 µM
[10] = second compound 0.1 µM, first compound 1 µM
[11] = second compound 0.1 µM, first compound 3.16 µM
[12] = second compound 0.1 µM, first compound 10 µM
[13] = second compound 0.316 µM, first compound 0.0316 µM
[14] = second compound 0.316 µM, first compound 0.1 µM
[15] = second compound 0.316 µM, first compound 0.316 µM
[16] = second compound 0.316 µM, first compound 1 µM
[17] = second compound 0.316 µM, first compound 3.16 µM
[18] = second compound 0.316 µM, first compound 10 µM
[19] = second compound 1 µM, first compound 0.0316 µM
[20] = second compound 1 µM, first compound 0.1 µM
[21] = second compound 1 µM, first compound 0.316 µM
[22] = second compound 1 µM, first compound 1 µM
[23] = second compound 1 µM, first compound 3.16 µM
[24] = second compound 1 µM, first compound 10 µM
[25] = second compound 3.16 µM, first compound 0.0316 µM
[26] = second compound 3.16 µM, first compound 0.1 µM
[27] = second compound 3.16 µM, first compound 0.316 µM
[28] = second compound 3.16 µM, first compound 1 µM
[29] = second compound 3.16 µM, first compound 3.16 µM
[30] = second compound 3.16 µM, first compound 10 µM
[31] = second compound 10 µM, first compound 0.0316 µM
[32] = second compound 10 µM, first compound 0.1 µM
[33] = second compound 10 µM, first compound 0.316 µM
[34] = second compound 10 µM, first compound 1 µM
[35] = second compound 10 µM, first compound 3.16 µM
[36] = second compound 10 µM, first compound 10 µM
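Also: spheroids exposed to drugs for seven days before viability read.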
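For viability, T/C in this document: 100% = DMSO vehicle control wells.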

Compound COc1cc(C2c3cc4c(cc3C(OC3OC5COC(C)OC5C(O)C3O)C3COC(=O)C23)OCO4)cc(OC)c1O (stereo not drawn) + COC1C(OC(N)=O)C(O)C(Oc2ccc3c(O)c(NC(=O)c4ccc(O)c(CC=C(C)C)c4)c(=O)oc3c2C)OC1(C)C has an IC50 (second compound 0.0316 µM) of 1.04 µM, an IC50 (second compound 0.1 µM) of 0.683 µM and an IC50 (second compound 0.316 µM) of 0.691 µM. It also gave an IC50 (second compound 1 µM) of 0.569 µM, an IC50 (second compound 3.16 µM) of 0.887 µM and an IC50 (second compound 10 µM) of 0.706 µM. It also gave a viability, T/C [1] of 97.7%, a viability, T/C [2] of 81.4% and a viability, T/C [3] of 70.2%. It also gave a viability, T/C [4] of 47.3%, a viability, T/C [5] of 39.5% and a viability, T/C [6] of 29.4%. It also gave a viability, T/C [7] of 105%, a viability, T/C [8] of 94% and a viability, T/C [9] of 67.3%. For the same compound, the viability, T/C [10] was 41.8%, the viability, T/C [11] was 30.8% and the viability, T/C [12] was 30.7%. The viability, T/C [13] was 134%, the viability, T/C [14] was 85.2% and the viability, T/C [15] was 80.4%. The viability, T/C [16] was 32.8%, the viability, T/C [17] was 27.5% and the viability, T/C [18] was 26%. It also gave a viability, T/C [19] of 105%, a viability, T/C [20] of 126% and a viability, T/C [21] of 62.2%. For the same compound, the viability, T/C [22] was 57.6%, the viability, T/C [23] was 26.7% and the viability, T/C [24] was 30.6%. For the same compound, the viability, T/C [25] was 78%, the viability, T/C [26] was 108% and the viability, T/C [27] was 83.3%. The viability, T/C [28] was 46.7%, the viability, T/C [29] was 28.9% and the viability, T/C [30] was 32.6%. It also gave a viability, T/C [31] of 96.9%, a viability, T/C [32] of 75.9% and a viability, T/C [33] of 68.7%. For the same compound, the viability, T/C [34] was 43.9%, the viability, T/C [35] was 27.4% and the viability, T/C [36] was 35.5%.

In the case of Cn1ncnc1[C@H]1c2n[nH]c(=O)c3cc(F)cc(c23)N[C@@H]1c1ccc(F)cc1 + COC1C(OC(N)=O)C(O)C(Oc2ccc3c(O)c(NC(=O)c4ccc(O)c(CC=C(C)C)c4)c(=O)oc3c2C)OC1(C)C, the IC50 (second compound 0.0316 µM) is reported as greater than 0.1 µM, the IC50 (second compound 0.1 µM) is reported as greater than 0.1 µM and the IC50 (second compound 0.316 µM) is reported as greater than 0.1 µM. It also gave an IC50 (second compound 1 µM) greater than 0.1 µM, an IC50 (second compound 3.16 µM) greater than 0.1 µM and an IC50 (second compound 10 µM) greater than 0.1 µM. For the same compound, the viability, T/C (second compound 0.0316 µM, first compound 0.000316 µM) was 101%, the viability, T/C (second compound 0.0316 µM, first compound 0.001 µM) was 106% and the viability, T/C (second compound 0.0316 µM, first compound 0.00316 µM) was 85.8%. It also gave a viability, T/C (second compound 0.0316 µM, first compound 0.01 µM) of 83.9%, a viability, T/C [1] of 92.9% and a viability, T/C [2] of 83.2%. The viability, T/C (second compound 0.1 µM, first compound 0.000316 µM) was 96.5%, the viability, T/C (second compound 0.1 µM, first compound 0.001 µM) was 113% and the viability, T/C (second compound 0.1 µM, first compound 0.00316 µM) was 103%. For the same compound, the viability, T/C (second compound 0.1 µM, first compound 0.01 µM) was 89.8%, the viability, T/C [7] was 88.5% and the viability, T/C [8] was 83.5%. It also gave a viability, T/C (second compound 0.316 µM, first compound 0.000316 µM) of 94.7%, a viability, T/C (second compound 0.316 µM, first compound 0.001 µM) of 73.8% and a viability, T/C (second compound 0.316 µM, first compound 0.00316 µM) of 97.6%. For the same compound, the viability, T/C (second compound 0.316 µM, first compound 0.01 µM) was 115%, the viability, T/C [13] was 103% and the viability, T/C [14] was 89.5%. For the same compound, the viability, T/C (second compound 1 µM, first compound 0.000316 µM) was 84%, the viability, T/C (second compound 1 µM, first compound 0.001 µM) was 105% and the viability, T/C (second compound 1 µM, first compound 0.00316 µM) was 121%. For the same compound, the viability, T/C (second compound 1 µM, first compound 0.01 µM) was 94.8%, the viability, T/C [19] was 90.8% and the viability, T/C [20] was 70.6%. The viability, T/C (second compound 3.16 µM, first compound 0.000316 µM) was 101%, the viability, T/C (second compound 3.16 µM, first compound 0.001 µM) was 102% and the viability, T/C (second compound 3.16 µM, first compound 0.00316 µM) was 84.3%. For the same compound, the viability, T/C (second compound 3.16 µM, first compound 0.01 µM) was 84.6%, the viability, T/C [25] was 61.7% and the viability, T/C [26] was 90%. For the same compound, the viability, T/C (second compound 10 µM, first compound 0.000316 µM) was 128%, the viability, T/C (second compound 10 µM, first compound 0.001 µM) was 92.7% and the viability, T/C (second compound 10 µM, first compound 0.00316 µM) was 85.4%. It also gave a viability, T/C (second compound 10 µM, first compound 0.01 µM) of 105%, a viability, T/C [31] of 78.7% and a viability, T/C [32] of 95.8%.

O=c1[nH]cc(F)c(=O)[nH]1 + Nc1ccc(C#CCN(C(=O)Cc2ncc(C(F)(F)F)cc2C(F)(F)F)c2ccc(F)cc2)nn1 was tested, and the IC50 (second compound 0.0316 µM) was greater than 10 µM, the IC50 (second compound 0.1 µM) was greater than 10 µM and the IC50 (second compound 0.316 µM) was greater than 10 µM. It also gave an IC50 (second compound 1 µM) greater than 10 µM, an IC50 (second compound 3.16 µM) greater than 10 µM and an IC50 (second compound 10 µM) greater than 10 µM. It also gave a viability, T/C [1] of 83%, a viability, T/C [2] of 88.5% and a viability, T/C [3] of 87.4%. The viability, T/C [4] was 68.5%, the viability, T/C [5] was 62.7% and the viability, T/C [6] was 48.8%. It also gave a viability, T/C [7] of 101%, a viability, T/C [8] of 92.9% and a viability, T/C [9] of 82.1%. For the same compound, the viability, T/C [10] was 66.3%, the viability, T/C [11] was 60.7% and the viability, T/C [12] was 53.4%. For the same compound, the viability, T/C [13] was 81.5%, the viability, T/C [14] was 74.1% and the viability, T/C [15] was 88.9%. The viability, T/C [16] was 68.4%, the viability, T/C [17] was 55.8% and the viability, T/C [18] was 56.5%. For the same compound, the viability, T/C [19] was 103%, the viability, T/C [20] was 79.7% and the viability, T/C [21] was 104%. For the same compound, the viability, T/C [22] was 68.9%, the viability, T/C [23] was 55% and the viability, T/C [24] was 61%. It also gave a viability, T/C [25] of 92.2%, a viability, T/C [26] of 85.8% and a viability, T/C [27] of 86.6%. For the same compound, the viability, T/C [28] was 62.1%, the viability, T/C [29] was 61% and the viability, T/C [30] was 53.7%. It also gave a viability, T/C [31] of 125%, a viability, T/C [32] of 101% and a viability, T/C [33] of 91.8%. For the same compound, the viability, T/C [34] was 58.3%, the viability, T/C [35] was 52.4% and the viability, T/C [36] was 56.7%.

Work on COc1cc(C2c3cc4c(cc3C(OC3OC5COC(C)OC5C(O)C3O)C3COC(=O)C23)OCO4)cc(OC)c1O (stereo not drawn) + Cc1cccc(N(C)C(=O)C2C(O)CCN2c2nc(C)cc(C(F)(F)F)c2C#N)c1 yielded an IC50 (second compound 0.0316 µM) of 0.577 µM, an IC50 (second compound 0.1 µM) of 0.87 µM and an IC50 (second compound 0.316 µM) of 0.743 µM. It also gave an IC50 (second compound 1 µM) of 0.471 µM, an IC50 (second compound 3.16 µM) of 0.397 µM and an IC50 (second compound 10 µM) of 0.353 µM. The viability, T/C [1] was 89.9%, the viability, T/C [2] was 112% and the viability, T/C [3] was 65.5%. It also gave a viability, T/C [4] of 41.6%, a viability, T/C [5] of 33.3% and a viability, T/C [6] of 32.7%. For the same compound, the viability, T/C [7] was 104%, the viability, T/C [8] was 94.6% and the viability, T/C [9] was 73.7%. The viability, T/C [10] was 47.3%, the viability, T/C [11] was 33.5% and the viability, T/C [12] was 35.9%. The viability, T/C [13] was 131%, the viability, T/C [14] was 114% and the viability, T/C [15] was 74.1%. The viability, T/C [16] was 40.6%, the viability, T/C [17] was 34.2% and the viability, T/C [18] was 33.8%. It also gave a viability, T/C [19] of 116%, a viability, T/C [20] of 78% and a viability, T/C [21] of 61%. It also gave a viability, T/C [22] of 35.9%, a viability, T/C [23] of 30.4% and a viability, T/C [24] of 30.2%. It also gave a viability, T/C [25] of 84.2%, a viability, T/C [26] of 93.6% and a viability, T/C [27] of 54%. The viability, T/C [28] was 37.4%, the viability, T/C [29] was 28.7% and the viability, T/C [30] was 34.7%. It also gave a viability, T/C [31] of 110%, a viability, T/C [32] of 73.7% and a viability, T/C [33] of 56.2%. It also gave a viability, T/C [34] of 33.7%, a viability, T/C [35] of 31.1% and a viability, T/C [36] of 33.1%.
